Results reported in patent publication US8088727B2, “Method for reducing the risk, lessening the symptom, or delaying the onset of insulin resistance by administering SS-31” (Cornell University, priority 2008, dated 2012).
Square brackets hold non-standard residues; d marks the D form. Ends that are not written are not given here. Peptide text beside a SMILES is read from it. Dmt = Cc1cc(O)cc(C)c1C[C@H](N)C(=O)O

Columns and labels:
[1] = tested on: several mammalian cell types; settings: several mammalian cell types (Zhao et al. 2003); cited from earlier work
[2] = tested on: mitochondrial H2O2 emission in permeabilized skeletal muscle fiber bundles; assay: Mitochondrial H2O2 emission in permeabilized skeletal muscle fiber bundles, SS-31 dose response in vitro; format: cell-based, rat; settings: dose response curve in vitro (FIG. 3A), succinate-supported respiration
Method: Preparation of permeabilized muscle fiber bundles. Briefly, small portions (25 mg) of soleus, RG, and WG muscle were dissected and placed in ice-cold buffer X, containing 60 mM K-MES, 35 mM KCl, 7.23 mM K2 EGTA, 2.77 mM CaK2EGTA, 20 mM imidazole, 0.5 mM DTT, 20 mM taurine, 5.7 mM ATP, 15 mM PCr, and 6.56 mM MgCl2·6H2O (pH 7.1, 295 mosmol/kg H2O). The muscle was trimmed of connective tissue and cut down to fiber bundles (2×7 mm, 4-8 mg wet wt). With a pair of needle-tipped forceps under a dissecting microscope, fibers were gently separated from one another to maximize surface area of the fiber bundle, leaving only small regions of contact. […]
Mitochondrial respiration and H2O2 emission measurements. […] Mitochondrial H2O2 emission was measured at 30° C. during state 4 respiration in Buffer Z (10 μg/ml oligomycin) by continuously monitoring oxidation of Amplex Red using a Spex Fluoromax 3 (Jobin Yvon, Ltd.) spectrofluorometer with temperature control and magnetic stirring at >1000 rpm. […] After baseline fluorescence (reactants only) was established, the reaction was initiated by addition of a permeabilized fiber bundle to 300 μl of buffer Z containing 5 μM Amplex Red and 0.5 U/ml HRP, with succinate at […]. […] The rate of respiration is expressed as pmol·s^−1·mg dry weight^−1, and mitochondrial H2O2 emission expressed as pmol·min^−1·mg dry weight^−1. […]

[3] = tested on: skeletal muscle mitochondrial H2O2 emission of high fat fed rats; assay: Mitochondrial H2O2 emission in permeabilized fibers from high fat fed rats given SS-31; format: in vivo, rat; settings: for increase in mitochondrial oxidant emitting potential: high fat diet (60%) six weeks
From the text: (§1) Next, rats were placed on a high fat diet (60%) for six weeks with or without daily administration of SS-31.

[4] = tested on: skeletal muscle mitochondrial respiration of high fat fed rats; assay: Mitochondrial respiration in permeabilized fibers from high fat fed rats given SS-31; format: in vivo, rat
From the text: as §1

[5] = rat, in vivo
From the text: as §1

[6] = tested on: intracellular redox environment in skeletal muscle; assay: Total glutathione and GSH/GSSG ratio in skeletal muscle of high fat fed rats; format: in vivo, rat
Method: Protein homogenates were prepared by homogenizing 100 mg of powered frozen muscle in a buffer containing in mM: 10 Tris, 1 EDTA, 1 EGTA, 2 NaOrthovanadate, 2 NaPyrophosphate, 5 NaF, protease inhibitor cocktail (Complete) at pH 7.2. After homogenization, 1% Triton X-100 was added to the protein suspension, cotexed and allowed to sit on ice for 5 minutes. The tubes were then spun at 10,000 rpm for 10 minutes to pellet the insoluble debris. For GSSG measurement, tissue was homogenized in a solution containing 20 mM Methyl-2-vinylpyridinium triflate to scavenge all reduced thiols in the sample. Total GSH and GSSG were then measured using the reagents and calibration set provided by the GSH/GSSG assay (Oxis Research) according to the manufacturer's instructions, with small modifications as needed.
To establish a link between the increased mitochondrial oxidant emission brought about by high fat diet and its effect on overall redox environment of skeletal muscle, both GSH and GSSG were measured in skeletal muscle of chow fed and high fat fed rats under two conditions; after a 10 h fast and 1 h after administration of a standard glucose load (oral gavage, 10 h fasted). […]

[7] = tested on: high fat diet-induced insulin resistance; assay: Oral glucose tolerance test after six week high fat diet; format: in vivo, rat
Method: To determine whether mitochondrial-derived changes in intracellular redox environment may be linked to the etiology of high fat diet-induced insulin resistance, oral glucose tolerance tests were performed in rats after the six week high fat diet. On the day of experiments, food was removed 10 hr prior to administration of a 2 g/kg glucose solution via gavage. Glucose levels were determined on whole blood samples (Lifescan, Milpitas, Calif.). Serum insulin levels were determined via a rat/mouse ELISA kit (Linco Research, St. Charles, Mo.). Fasting data were used to determine homeostatic model assessment (HOMA)-calculated as fasting insulin (μU/ml) x fasting glucose (mM)/22.5.

Akt = Akt phosphorylation in skeletal muscle after oral glucose load; format: in vivo, rat; settings: skeletal muscle of high fat fed rats, 1 h after oral glucose load (FIGS. 4E and 4F)
Method: Increased homeostatic model assessment (HOMA, FIG. 4C), and greater area under the curves for both blood glucose and insulin (FIG. 4D) confirmed the development of insulin resistance in high fat fed rats. […] To further assess insulin sensitivity, the phosphorylation state of the insulin signaling protein Akt in skeletal muscle from animals was measured after a 10 h fast or 1 h after receiving an oral glucose load. In response to glucose ingestion, Akt phosphorylation increased ˜5-fold in skeletal muscle of chow-fed controls but was unchanged in high fat fed rats (FIGS. 4E and 4F), confirming the presence of insulin resistance at the level of insulin signaling.

fatty (fa/fa) Zucker rat = settings: SS-31 1.0-5.0 mg/kg i.p. or oral, approximately 6 weeks
Method: Measured outcomes include body weight, fasting glucose/insulin/free fatty acid, glucose tolerance (OGTT), in vitro muscle insulin sensitivity (incubation), markers of insulin signaling (Akt-P, IRS-P), mitochondrial function studies on permeabilized fibers (respiration, H2O2 emission), markers of intracellular oxidative stress (lipid peroxidation, GSH/GSSG ratio, aconitase activity) and mitochondrial enzyme activity. […] Successful prevention of insulin resistance by the aromatic-cationic peptides of the invention is indicated by a reduction in one or more of the markers associated with insulin resistance or mitochondrial dysfunction enumerated above.
Measured outcomes include body weight, fasting glucose/insulin/free fatty acid, glucose tolerance (OGTT), in vitro muscle insulin sensitivity (incubation), markers of insulin signaling (Akt-P, IRS-P), mitochondrial function studies on permeabilized fibers (respiration, H2O2 emission), markers of intracellular oxidative stress (lipid peroxidation, GSH/GSSG ratio, aconitase activity) and mitochondrial enzyme activity. […] Successful treatment of insulin resistance by the aromatic-cationic peptides of the invention is indicated by a reduction in one or more of the markers associated with insulin resistance or mitochondrial dysfunction enumerated above.

mu-opioid receptor = mu-opioid receptor (Homo sapiens, UniProt P35372); settings: cited from earlier work
mu-opioid receptor, sequence (P35372 whole entry, species assumed): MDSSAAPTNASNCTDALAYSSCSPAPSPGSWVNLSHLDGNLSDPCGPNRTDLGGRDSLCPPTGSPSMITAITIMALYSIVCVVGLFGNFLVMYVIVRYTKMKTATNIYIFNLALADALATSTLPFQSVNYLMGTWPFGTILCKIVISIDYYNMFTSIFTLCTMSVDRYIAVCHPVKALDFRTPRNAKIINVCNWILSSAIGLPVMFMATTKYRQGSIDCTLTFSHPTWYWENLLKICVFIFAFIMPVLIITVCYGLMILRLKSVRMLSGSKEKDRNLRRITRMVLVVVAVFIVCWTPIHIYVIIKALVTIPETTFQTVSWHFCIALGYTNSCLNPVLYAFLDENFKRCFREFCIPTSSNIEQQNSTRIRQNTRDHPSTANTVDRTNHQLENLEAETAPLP

[8] = tested on: mitochondrial inner membrane; settings: while scavenging ROS; cited from earlier work
[9] = tested on: hearts subjected to myocardial stunning; settings: hearts subjected to myocardial stunning (Zhao et al. 2004); cited from earlier work
pancreatic islet cells = pancreatic islet cells after transplantation (Thomas et al. 2005); cited from earlier work
[10] = tested on: animal models of Parkinson's and amyotrophic lateral sclerosis disease; settings: animal models of Parkinson's and amyotrophic lateral sclerosis disease (Petri et al. 2006; Szeto et al. 2006); cited from earlier work

## 2′,6′-Dmt-D-Arg-Phe-Lys-NH2 [SS-02]
[1]
  penetration of the plasma membrane: readily penetrates

## Cc1cc(O)cc(C)c1C[C@H](NC(=O)[C@H](N)CCCNC(=N)N)C(=O)N[C@@H](CCCCN)C(=O)N[C@@H](Cc1ccccc1)C(N)=O [SS-31, D-Arg-2′6′Dmt-Lys-Phe-NH2] (H-[dR][Dmt]KF-NH2)
[2]
  reduction in mitochondrial H2O2 emission: greater than 50%
[3]; dose response curve in vivo (FIG. 3B), succinate-supported respiration
  reduction in mitochondrial H2O2 emission: greater than 50%
[3]; palmitoyl-carnitine supported respiration, daily SS-31 (FIG. 3D)
  increase in mitochondrial oxidant emitting potential: completely prevented
[3]; succinate supported respiration, daily SS-31 (FIG. 3C)
  increase in mitochondrial oxidant emitting potential: completely prevented
[4]; palmitoyl-carnitine-supported, high fat fed rats (FIG. 3F)
  basal rate of respiration: not affected
[4]; pyruvate/malate-supported, high fat fed rats (FIG. 3E)
  basal rate of respiration: not affected
[5]
  weight gain: did not affect
[6]; high fat fed rats, 10 h fast and 1 h after glucose ingestion (FIG. 3H)
  GSH/GSSG ratio: preserved the GSH/GSSG ratio near control levels
[6]; high fat feeding with SS-31 treatment, skeletal muscle (FIG. 3G)
  reduction in total cellular glutathione content (GSHT): ~30%
[7]; high fat fed rats (FIGS. 4C and 4D)
  development of insulin resistance (HOMA, area under the curves for blood glucose and insulin): completely blocked
[7]; high fat fed rats, 2 g/kg glucose by gavage (FIG. 4A)
  blood glucose response to the oral glucose challenge: normalized
[7]; high fat fed rats, 2 g/kg glucose by gavage (FIG. 4B)
  insulin response to the oral glucose challenge: normalized
Akt
  Akt phosphorylation in response to glucose ingestion: completely preserved
Fatty (fa/fa) Zucker rat; Zucker rats (~12 weeks of age)
  whole body and muscle insulin resistance: ameliorate or reduce
Fatty (fa/fa) Zucker rat; young Zucker rats (~3-4 weeks of age)
  development of whole body and muscle insulin resistance: attenuate or prevent
mu-opioid receptor
  mu-opioid receptor agonist activity: does not have mu-opioid receptor agonist activity
[8]
  effect on membrane potential or respiratory control: without affecting
[9]
  ROS: effectively reduce ROS
Pancreatic islet cells
  ROS: effectively reduce ROS
[10]
  ROS: effectively reduce ROS

## F[dR]FK-NH2 [SS-20]
mu-opioid receptor
  mu-opioid receptor agonist activity: does not have mu-opioid receptor agonist activity

## Tyr-D-Arg-Phe-Lys-NH2 [SS-01]
mu-opioid receptor
  mu-opioid receptor agonist activity: has mu-opioid receptor agonist activity
